# ChEMBL document CHEMBL4507259 (2021)
# pKi: −log10 of the molar value.
# How the values were obtained:
# NCI-H929 = assay: H929 cell line Proliferation assay; type: functional, Homo sapiens; conditions: Compound concentration 10 uM; time 3 day
# NCI-H727 = assay: H727 cell line Proliferation assay; type: functional, Homo sapiens; conditions: Compound concentration 10 uM; time 3 day
# [1] = target: Na+ channel (site 2); sodium channel alpha subunit (family) (Homo sapiens, UniProt P35498+P35499+Q01118+Q14524+Q15858+Q99250+Q9NY46+Q9UI33+Q9UQD0+Q9Y5Y9); assay: Na+ channel (site 2) CEREP ligand profiling; type: protein assay; conditions: compound concentration 10 uM
# DU-145 = assay: DU-145 cell line Proliferation assay; type: functional, Homo sapiens; conditions: Compound concentration 10 uM; time 5 day
# [2] = test system: ALK tyrosine kinase receptor (Homo sapiens), Q9UM73 [L1196M]; conditions: Compound concentration 1000.0 nM
# COLO-679 = assay: Colo679 cell line Proliferation assay; type: functional, Homo sapiens; conditions: Compound concentration 10 uM; time 5 day
# [3] = target: GABA-A receptor; anion channel (Homo sapiens) (UniProt P14867+P47870+P18507+P28472+P48169+Q99928+Q9UN88+P34903+O00591+O14764+Q8N1C3+P18505+P78334+P47869+P31644+Q16445); assay: Cl- channel (GABA-gated) CEREP ligand profiling; type: protein-complex assay; conditions: filed as antagonist; Compound concentration 10.0 uM
# [4] = target: Tyrosine-protein kinase FRK (Homo sapiens) (UniProt P42685); conditions: Compound concentration 1000.0 nM
# [5] = target: Peroxisome proliferator-activated receptor gamma (Homo sapiens) (UniProt P37231); assay: PPARgamma (h) CEREP ligand profiling; conditions: filed as agonist, Compound concentration 10.0 uM
# [6] = target: Tyrosine-protein kinase receptor Tie-1 (Homo sapiens) (UniProt P35590); conditions: Compound concentration 1000.0 nM
# MDA-MB-468 = assay: MDA_MB_468 cell line Proliferation assay; type: functional, Homo sapiens; conditions: Compound concentration 10 uM; time 5 day
# MDA-MB-231 = assay: MDA_MB_231 cell line Proliferation assay; type: functional, Homo sapiens; conditions: Compound concentration 10 uM; time 5 day
# SU-DHL10 = assay: SuDHL10 cell line Proliferation assay; type: functional, Homo sapiens; conditions: Compound concentration 10 uM; time 3 day
# [7] = test system: Tyrosine-protein kinase ABL1 (Homo sapiens), P00519 [T315I]; conditions: Compound concentration 1000.0 nM
# HCC70 = assay: HCC70 cell line Proliferation assay; type: functional, Homo sapiens; conditions: Compound concentration 10 uM; time 5 day
# NCI-H1048 = assay: H1048 cell line Proliferation assay; type: functional, Homo sapiens; conditions: Compound concentration 10 uM; time 4 day
# SET-2 = assay: SET-2 cell line Proliferation assay; type: functional, Homo sapiens; conditions: Compound concentration 10 uM; time 3 day
# Raji = assay: Raji cell line Proliferation assay; type: functional, Homo sapiens; conditions: Compound concentration 10 uM; time 3 day
# HCC1187 = assay: HCC1187 cell line Proliferation assay; type: functional, Homo sapiens; conditions: Compound concentration 10 uM; time 5 day
# SU-DHL-2 = assay: SuDHL2 cell line Proliferation assay; type: functional, Homo sapiens; conditions: Compound concentration 10 uM; time 3 day
# KARPAS-422 = assay: Karpas422 cell line Proliferation assay; type: functional, Homo sapiens; conditions: Compound concentration 10 uM; time 3 day
# DB = assay: DB cell line Proliferation assay; type: functional, Homo sapiens; conditions: Compound concentration 10 uM; time 3 day
# [8] = target: STE20-like serine/threonine-protein kinase (Homo sapiens) (UniProt Q9H2G2); conditions: Compound concentration 1000.0 nM
# [9] = target: Sigma non-opioid intracellular receptor 1 (Homo sapiens) (UniProt Q99720); conditions: Compound concentration 10.0 uM
# NCI-H441 = assay: H441 cell line Proliferation assay; type: functional, Homo sapiens; conditions: Compound concentration 10 uM; time 3 day
# [10] = target: Tyrosine-protein kinase Fer (Homo sapiens) (UniProt P16591); conditions: Compound concentration 1000.0 nM
# [11] = target: 5-hydroxytryptamine receptor 2B (Homo sapiens, UniProt P41595); assay: GPCRScan assay: inhibition of 5-HT2B; set-up: radioligand conc. used [nm] 1.0 – 2.0, parental cells stable HEK
# GA-10 = assay: GA10 cell line Proliferation assay; type: functional, Homo sapiens; conditions: Compound concentration 10 uM; time 3 day
# U-2940 = assay: U2940 cell line Proliferation assay; type: functional, Homo sapiens; conditions: Compound concentration 10 uM; time 3 day
# 4T1 = assay: 4T1 (mouse) cell line Proliferation assay; type: functional; conditions: Compound concentration 10 uM; time 5 day
# MeWo = assay: MeWo cell line Proliferation assay; type: functional, Homo sapiens; conditions: Compound concentration 10 uM; time 5 day
# NCI-H209 = assay: H209 cell line Proliferation assay; type: functional, Homo sapiens; conditions: Compound concentration 10 uM; time 4 day
# NCI-H69 = assay: H69 cell line Proliferation assay; type: functional, Homo sapiens; conditions: Compound concentration 10 uM; time 4 day
# Daudi = assay: Daudi cell line Proliferation assay; type: functional, Homo sapiens; conditions: Compound concentration 10 uM; time 3 day
# HCC1143 = assay: HCC1143 cell line Proliferation assay; type: functional, Homo sapiens; conditions: Compound concentration 10 uM; time 5 day
# NCI-H1373 = assay: H1373 cell line Proliferation assay; type: functional, Homo sapiens; conditions: Compound concentration 10 uM; time 3 day
# NCI-H1836 = assay: H1836 cell line Proliferation assay; type: functional, Homo sapiens; conditions: Compound concentration 10 uM; time 4 day
# NCI-H522 = assay: H522 cell line Proliferation assay; type: functional, Homo sapiens; conditions: Compound concentration 10 uM; time 3 day
# [12] = target: Mu-type opioid receptor (Homo sapiens) (UniProt P35372); conditions: Compound concentration 10.0 uM
# D(3) dopamine receptor = D(3) dopamine receptor (Homo sapiens, UniProt P35462); assay: GPCRScan assay: inhibition of D3; set-up: radioligand conc. used [nm] 0.5 – 1.8, parental cells HEKT
# [13] = target: Endothelin receptor type B (Homo sapiens) (UniProt P24530); assay: ETB (h) CEREP ligand profiling; conditions: filed as agonist, Compound concentration 10.0 uM
# [14] = target: T1, Alpha-1A adrenergic receptor (Homo sapiens) (UniProt P35348); conditions: Compound concentration 10.0 uM
# T1 sequence (whole entry): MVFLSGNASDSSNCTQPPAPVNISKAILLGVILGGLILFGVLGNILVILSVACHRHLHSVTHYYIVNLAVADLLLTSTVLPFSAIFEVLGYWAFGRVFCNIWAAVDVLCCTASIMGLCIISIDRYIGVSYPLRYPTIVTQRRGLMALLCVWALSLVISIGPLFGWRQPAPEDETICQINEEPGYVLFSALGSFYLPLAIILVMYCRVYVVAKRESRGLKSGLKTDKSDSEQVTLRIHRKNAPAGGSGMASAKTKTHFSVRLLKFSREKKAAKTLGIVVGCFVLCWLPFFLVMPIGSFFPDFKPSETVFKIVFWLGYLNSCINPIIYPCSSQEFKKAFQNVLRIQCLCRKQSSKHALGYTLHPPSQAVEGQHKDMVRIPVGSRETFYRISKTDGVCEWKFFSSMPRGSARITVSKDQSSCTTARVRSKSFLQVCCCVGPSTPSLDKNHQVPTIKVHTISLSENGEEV
# [15] = target: Mitogen-activated protein kinase 11 (Homo sapiens) (UniProt Q15759); conditions: Compound concentration 1000.0 nM
# [16] = target: Cyclin-dependent kinase 15 (Homo sapiens) (UniProt Q96Q40); conditions: Compound concentration 1000.0 nM
# [17] = target: Tyrosine-protein kinase ITK/TSK (Homo sapiens) (UniProt Q08881); conditions: Compound concentration 1000.0 nM
# [18] = target: Dual specificity mitogen-activated protein kinase kinase 1 (Homo sapiens) (UniProt Q02750); conditions: Compound concentration 1000.0 nM
# [19] = target: CREB-binding protein/Histone acetyltransferase p300 (Homo sapiens, UniProt Q09472+Q92793); assay: Inhibition of H3K27Ac (LnCaP-FGC); type: cell-based; conditions: lncap-clone-fgc
# [20] = target: Activin receptor type-2A (Homo sapiens) (UniProt P27037); conditions: Compound concentration 1000.0 nM
# Chain of Tyrosine-protein kinase Fer (Homo sapiens) (P16591 whole entry, looked up): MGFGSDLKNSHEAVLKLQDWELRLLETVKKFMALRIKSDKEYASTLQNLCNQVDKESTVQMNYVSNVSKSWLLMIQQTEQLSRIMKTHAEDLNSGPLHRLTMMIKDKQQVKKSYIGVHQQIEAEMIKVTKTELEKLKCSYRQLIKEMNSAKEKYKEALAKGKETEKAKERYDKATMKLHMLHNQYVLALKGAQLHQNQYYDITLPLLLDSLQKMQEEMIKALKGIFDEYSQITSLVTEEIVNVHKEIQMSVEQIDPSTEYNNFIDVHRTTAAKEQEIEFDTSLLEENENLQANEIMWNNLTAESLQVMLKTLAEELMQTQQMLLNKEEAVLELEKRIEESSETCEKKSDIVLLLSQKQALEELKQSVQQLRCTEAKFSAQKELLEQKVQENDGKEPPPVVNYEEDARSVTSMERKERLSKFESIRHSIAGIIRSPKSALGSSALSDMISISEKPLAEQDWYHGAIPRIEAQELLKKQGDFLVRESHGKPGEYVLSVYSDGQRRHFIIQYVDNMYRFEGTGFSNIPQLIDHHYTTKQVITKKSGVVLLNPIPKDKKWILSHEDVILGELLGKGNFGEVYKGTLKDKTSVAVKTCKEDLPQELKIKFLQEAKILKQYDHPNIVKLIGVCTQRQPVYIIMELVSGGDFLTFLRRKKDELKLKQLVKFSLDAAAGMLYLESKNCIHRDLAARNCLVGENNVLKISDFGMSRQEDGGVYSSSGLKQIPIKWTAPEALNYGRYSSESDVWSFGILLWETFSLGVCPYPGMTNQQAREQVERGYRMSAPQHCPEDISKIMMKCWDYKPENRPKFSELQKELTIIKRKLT
# Chain of Tyrosine-protein kinase receptor Tie-1 (Homo sapiens) (P35590 whole entry): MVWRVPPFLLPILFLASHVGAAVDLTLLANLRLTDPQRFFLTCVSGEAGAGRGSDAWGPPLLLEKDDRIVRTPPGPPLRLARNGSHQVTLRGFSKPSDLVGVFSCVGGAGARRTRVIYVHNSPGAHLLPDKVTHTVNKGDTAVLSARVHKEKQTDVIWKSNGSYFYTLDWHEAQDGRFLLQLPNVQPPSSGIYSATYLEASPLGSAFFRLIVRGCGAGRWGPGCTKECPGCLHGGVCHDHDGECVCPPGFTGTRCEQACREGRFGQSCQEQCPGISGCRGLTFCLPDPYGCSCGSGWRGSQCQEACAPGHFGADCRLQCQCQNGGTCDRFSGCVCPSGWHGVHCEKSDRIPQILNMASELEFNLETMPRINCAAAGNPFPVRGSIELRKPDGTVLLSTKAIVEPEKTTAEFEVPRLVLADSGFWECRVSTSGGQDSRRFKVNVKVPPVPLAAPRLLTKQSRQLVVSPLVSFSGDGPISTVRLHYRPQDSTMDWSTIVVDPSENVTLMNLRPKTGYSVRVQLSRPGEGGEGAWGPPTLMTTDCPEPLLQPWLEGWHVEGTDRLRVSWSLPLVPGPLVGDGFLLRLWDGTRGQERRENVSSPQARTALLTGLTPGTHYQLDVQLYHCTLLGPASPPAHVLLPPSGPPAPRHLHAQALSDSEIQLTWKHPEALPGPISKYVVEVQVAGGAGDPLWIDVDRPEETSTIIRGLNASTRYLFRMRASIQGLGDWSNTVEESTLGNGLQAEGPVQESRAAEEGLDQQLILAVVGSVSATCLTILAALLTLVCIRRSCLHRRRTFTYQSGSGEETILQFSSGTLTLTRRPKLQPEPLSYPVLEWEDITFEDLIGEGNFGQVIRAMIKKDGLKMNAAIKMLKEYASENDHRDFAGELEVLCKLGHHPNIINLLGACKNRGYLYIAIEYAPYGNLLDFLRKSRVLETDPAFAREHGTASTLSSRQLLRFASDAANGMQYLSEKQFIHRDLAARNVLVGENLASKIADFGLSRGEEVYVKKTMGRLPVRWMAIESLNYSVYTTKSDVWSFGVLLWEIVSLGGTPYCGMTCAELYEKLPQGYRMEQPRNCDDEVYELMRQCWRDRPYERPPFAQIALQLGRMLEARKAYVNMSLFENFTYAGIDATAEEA
# Chain of 5-hydroxytryptamine receptor 2B (P41595 whole entry): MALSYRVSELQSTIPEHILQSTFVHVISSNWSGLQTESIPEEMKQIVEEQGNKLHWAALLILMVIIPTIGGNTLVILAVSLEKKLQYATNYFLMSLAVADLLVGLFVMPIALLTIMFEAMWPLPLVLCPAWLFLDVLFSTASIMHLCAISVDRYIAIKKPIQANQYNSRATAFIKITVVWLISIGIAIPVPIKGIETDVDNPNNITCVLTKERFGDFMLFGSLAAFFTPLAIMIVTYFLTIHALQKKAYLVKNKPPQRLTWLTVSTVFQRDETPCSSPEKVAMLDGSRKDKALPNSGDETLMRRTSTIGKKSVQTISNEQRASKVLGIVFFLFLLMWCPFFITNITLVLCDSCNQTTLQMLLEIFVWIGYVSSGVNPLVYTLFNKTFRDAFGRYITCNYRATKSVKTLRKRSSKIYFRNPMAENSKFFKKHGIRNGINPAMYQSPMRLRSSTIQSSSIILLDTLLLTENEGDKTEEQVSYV
# Chain of STE20-like serine/threonine-protein kinase (Homo sapiens) (Q9H2G2 whole entry, looked up): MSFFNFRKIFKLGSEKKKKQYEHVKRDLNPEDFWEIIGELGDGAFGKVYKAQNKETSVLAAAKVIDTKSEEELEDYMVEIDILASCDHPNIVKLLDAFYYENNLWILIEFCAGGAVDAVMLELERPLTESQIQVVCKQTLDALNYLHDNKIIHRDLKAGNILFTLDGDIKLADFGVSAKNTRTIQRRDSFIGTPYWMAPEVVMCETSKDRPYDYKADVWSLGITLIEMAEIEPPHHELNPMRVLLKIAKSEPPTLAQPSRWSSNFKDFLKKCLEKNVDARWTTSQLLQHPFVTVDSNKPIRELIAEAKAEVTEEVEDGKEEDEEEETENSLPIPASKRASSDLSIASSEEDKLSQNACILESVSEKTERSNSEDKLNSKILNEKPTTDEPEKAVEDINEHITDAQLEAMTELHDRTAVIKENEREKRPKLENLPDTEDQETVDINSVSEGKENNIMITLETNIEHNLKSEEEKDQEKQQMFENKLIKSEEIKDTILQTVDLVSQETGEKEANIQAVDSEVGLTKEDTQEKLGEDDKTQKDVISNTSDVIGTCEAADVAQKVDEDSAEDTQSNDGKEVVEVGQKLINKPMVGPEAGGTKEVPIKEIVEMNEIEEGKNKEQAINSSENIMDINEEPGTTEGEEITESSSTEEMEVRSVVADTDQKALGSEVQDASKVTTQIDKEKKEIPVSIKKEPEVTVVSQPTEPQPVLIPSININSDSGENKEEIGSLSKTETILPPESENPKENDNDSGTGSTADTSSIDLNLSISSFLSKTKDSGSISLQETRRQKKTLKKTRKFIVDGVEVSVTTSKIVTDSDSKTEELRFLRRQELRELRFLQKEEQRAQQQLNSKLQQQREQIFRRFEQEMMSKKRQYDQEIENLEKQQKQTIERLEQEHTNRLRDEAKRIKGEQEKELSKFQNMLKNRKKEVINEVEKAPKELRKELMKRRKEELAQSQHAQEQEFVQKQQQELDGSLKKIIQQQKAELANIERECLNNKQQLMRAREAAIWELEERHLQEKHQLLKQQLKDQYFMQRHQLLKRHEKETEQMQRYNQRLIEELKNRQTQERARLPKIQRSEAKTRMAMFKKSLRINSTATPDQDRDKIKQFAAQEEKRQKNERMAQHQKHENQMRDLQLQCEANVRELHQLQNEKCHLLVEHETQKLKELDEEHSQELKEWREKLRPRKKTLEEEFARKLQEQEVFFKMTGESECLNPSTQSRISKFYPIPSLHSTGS
# Chain of Sigma non-opioid intracellular receptor 1 (Homo sapiens) (Q99720 whole entry): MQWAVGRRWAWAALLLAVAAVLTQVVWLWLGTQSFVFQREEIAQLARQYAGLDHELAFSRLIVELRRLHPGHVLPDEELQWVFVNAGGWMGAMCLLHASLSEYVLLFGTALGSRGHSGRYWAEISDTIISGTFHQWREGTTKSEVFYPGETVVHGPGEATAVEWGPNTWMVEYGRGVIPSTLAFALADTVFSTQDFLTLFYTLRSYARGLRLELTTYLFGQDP
# Chain of Peroxisome proliferator-activated receptor gamma (Homo sapiens) (P37231 whole entry): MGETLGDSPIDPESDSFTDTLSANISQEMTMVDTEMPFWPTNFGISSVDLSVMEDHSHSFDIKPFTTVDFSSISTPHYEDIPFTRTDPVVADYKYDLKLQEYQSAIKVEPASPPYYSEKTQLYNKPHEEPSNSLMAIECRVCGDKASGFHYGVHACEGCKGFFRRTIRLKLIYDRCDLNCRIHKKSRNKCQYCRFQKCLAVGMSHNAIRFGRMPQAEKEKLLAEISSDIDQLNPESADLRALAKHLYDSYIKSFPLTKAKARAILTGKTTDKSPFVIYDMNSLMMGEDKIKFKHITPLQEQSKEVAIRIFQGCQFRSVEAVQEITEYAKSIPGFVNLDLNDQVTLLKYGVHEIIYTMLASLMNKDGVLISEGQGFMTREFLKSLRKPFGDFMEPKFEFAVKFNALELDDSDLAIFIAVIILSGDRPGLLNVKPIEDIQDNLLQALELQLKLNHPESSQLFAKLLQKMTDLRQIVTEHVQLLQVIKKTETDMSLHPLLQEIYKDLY
# Chain of D(3) dopamine receptor (P35462 whole entry): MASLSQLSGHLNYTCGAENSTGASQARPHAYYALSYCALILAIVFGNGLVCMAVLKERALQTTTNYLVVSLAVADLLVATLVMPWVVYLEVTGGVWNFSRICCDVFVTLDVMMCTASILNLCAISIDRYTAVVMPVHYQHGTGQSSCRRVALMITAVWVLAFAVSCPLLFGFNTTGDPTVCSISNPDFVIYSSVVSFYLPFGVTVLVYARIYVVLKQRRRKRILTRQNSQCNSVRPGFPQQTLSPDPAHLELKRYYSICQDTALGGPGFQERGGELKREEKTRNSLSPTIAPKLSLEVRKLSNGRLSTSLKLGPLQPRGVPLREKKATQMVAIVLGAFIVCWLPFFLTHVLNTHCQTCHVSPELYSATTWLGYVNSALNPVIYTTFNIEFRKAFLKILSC
smiles,measurement,setting,value
CNC(=O)Nc1ccc2c(c1)CC[C@@]21OC(=O)N(CC(=O)N(Cc2ccc(F)cc2)[C@@H](C)C(F)(F)F)C1=O [A-485],Cell Proliferation EC50,NCI-H929,0.329 µM
same,Cell Proliferation EC50,NCI-H727,6.632 µM
same,inhibition at 10 µM,[1],19% (not active)
same,Cell Proliferation EC50,DU-145,>10 µM
same,residual activity,[2],75%
same,Cell Proliferation EC50,COLO-679,2.258 µM
same,inhibition,[3],47%
same,residual activity,[4],94%
same,inhibition,[5],10%
same,residual activity,[6],89%
same,Cell Proliferation EC50,MDA-MB-468,0.3767 µM
same,Cell Proliferation EC50,MDA-MB-231,>10 µM
same,Cell Proliferation EC50,SU-DHL10,0.9169 µM
same,residual activity,[7],78%
same,Cell Proliferation EC50,HCC70,>10 µM
same,Cell Proliferation EC50,NCI-H1048,>10 µM
same,Cell Proliferation EC50,SET-2,2.01 µM
same,Cell Proliferation EC50,Raji,0.4631 µM
same,Cell Proliferation EC50,HCC1187,>10 µM
same,Cell Proliferation EC50,SU-DHL-2,0.9538 µM
same,Cell Proliferation EC50,KARPAS-422,0.2454 µM
same,Cell Proliferation EC50,DB,0.7727 µM
same,residual activity,[8],82%
same,inhibition,[9],34.5%
same,Cell Proliferation EC50,NCI-H441,>10 µM
same,residual activity,[10],87%
same,pKi,[11]; read-out: Ki,5.89
same,Ki,[11]; read-out: pKi (converted),1.2 µM
same,Cell Proliferation EC50,GA-10,1.059 µM
same,Cell Proliferation EC50,U-2940,1.332 µM
same,Cell Proliferation EC50,4T1,>10 µM
same,Cell Proliferation EC50,MeWo,2.427 µM
same,Cell Proliferation EC50,NCI-H209,0.4 µM
same,Cell Proliferation EC50,NCI-H69,>10 µM
same,Cell Proliferation EC50,Daudi,0.4346 µM
same,Cell Proliferation EC50,HCC1143,>10 µM
same,Cell Proliferation EC50,NCI-H1373,2.341 µM
same,Cell Proliferation EC50,NCI-H1836,>10 µM
same,Cell Proliferation EC50,NCI-H522,3.517 µM
CNC(=O)Nc1ccc2c(c1)[C@@]1(CC2)OC(=O)N(CC(=O)N(Cc2ccc(F)cc2)[C@@H](C)C(F)(F)F)C1=O [A-486],inhibition at 10 µM,[1],-5% (not active)
same,inhibition,[12],-5.11%
same,residual activity,[2],88%
same,inhibition,[3],41%
same,residual activity,[4],95%
same,inhibition,[5],1%
same,residual activity,[6],100%
same,residual activity,[7],86%
same,pKi,D(3) dopamine receptor; read-out: Ki,5.94
same,Ki,D(3) dopamine receptor; read-out: pKi (converted),1.1 µM
same,inhibition,[13],8%
same,inhibition,[14],0.04%
same,residual activity,[15],100%
same,residual activity,[8],83%
same,residual activity,[16],100%
same,inhibition,[9],17.7%
same,residual activity,[17],92%
same,residual activity,[10],79%
same,residual activity,[18],98%
same,IC50,[19],> 10 µM
same,residual activity,[20],100%
